2 compounds from US20120270908A1, “SUBSTITUTED 3 -HYDROZYPYRIDINES AND PHARMACEUTICAL COMPOSITIONS THEREOF” (priority 2007, published 2012) can be followed below.

One experiment concerns the target T1, insulin receptor (Homo sapiens, UniProt P06213).
T1 construct: endogenous in cells; host or cells: HepG2 (human hepatoma)
Briefly: Activation of insulin receptor in HepG2 cells: phosphorylation of tyrosine residues 1162/1163, PhosphoDetect insulin receptor ELISA kit. The format is cell-based. Conditions: 10 min, PBS with 5 mM glucose, percentage of the response to 100 nM insulin, mean±SEM (n=8). An excerpt: It is generally recognized that the phosphorylation increase activity of receptor to about 200-fold as compared to unphosphorylated one.
(ELISA stands for enzyme-linked immunosorbent assay.)

Experiment [1] relates to streptozotocin-induced male albino Wistar rats. Description: Streptozotocin-induced decompensated insulin resistance in rats: fasting serum glucose, plasma insulin, plasma triglycerides. To be noted: mean±SEM (n=10); for Glucose: fasting serum; for Insulin / Triglycerides: plasma. The class given is in vivo. The method, then: The rats with glucose levels more than 14.0 mmol/1 were used in the experiment one week after the streptozotocin injection.
Streptozotocin-induced rats were assigned to three groups: a control rats (n=10) and experimental rats (n=20). Control rats received daily i.p. injections of saline for 7 days. Experimental rats received daily i.p. injections of 10 mg/kg 2-Ethyl-4,6-dimethyl-3-hydroxypyridine, succinic acid salt (1:1); or 2-Ethyl-4,5,6-trimethyl-3-hydroxypyridine, succinic acid salt (1:1) for 7 days. Biochemical parameters were determined just before start of the treatment and on 14 day from the start of the treatment.

The mark [2] stands for this setting: 14 Day from start, 10 mg/kg i.p. daily for 7 days.
Setting [3] is: before treatment (baseline of the group).

T1 sequence (P06213 28-758 limits assumed): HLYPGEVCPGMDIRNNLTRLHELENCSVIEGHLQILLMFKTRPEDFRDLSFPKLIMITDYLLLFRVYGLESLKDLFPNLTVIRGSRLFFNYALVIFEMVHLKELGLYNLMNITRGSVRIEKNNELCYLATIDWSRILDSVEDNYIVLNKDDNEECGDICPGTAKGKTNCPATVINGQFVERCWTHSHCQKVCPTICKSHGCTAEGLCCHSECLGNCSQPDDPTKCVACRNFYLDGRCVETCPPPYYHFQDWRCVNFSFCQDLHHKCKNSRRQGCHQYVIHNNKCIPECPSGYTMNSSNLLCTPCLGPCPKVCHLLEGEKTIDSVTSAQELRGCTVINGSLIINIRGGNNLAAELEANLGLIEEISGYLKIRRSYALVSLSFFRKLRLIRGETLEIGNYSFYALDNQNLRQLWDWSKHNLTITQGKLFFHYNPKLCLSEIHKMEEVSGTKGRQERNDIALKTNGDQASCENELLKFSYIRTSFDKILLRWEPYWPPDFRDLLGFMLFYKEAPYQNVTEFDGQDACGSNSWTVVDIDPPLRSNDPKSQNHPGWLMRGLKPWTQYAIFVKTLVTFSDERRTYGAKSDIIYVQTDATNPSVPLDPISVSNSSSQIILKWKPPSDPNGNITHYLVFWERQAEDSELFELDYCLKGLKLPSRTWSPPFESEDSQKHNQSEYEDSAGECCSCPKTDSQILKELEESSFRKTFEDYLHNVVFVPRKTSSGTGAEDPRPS
T1 sequence (P06213 763-1382 limits assumed): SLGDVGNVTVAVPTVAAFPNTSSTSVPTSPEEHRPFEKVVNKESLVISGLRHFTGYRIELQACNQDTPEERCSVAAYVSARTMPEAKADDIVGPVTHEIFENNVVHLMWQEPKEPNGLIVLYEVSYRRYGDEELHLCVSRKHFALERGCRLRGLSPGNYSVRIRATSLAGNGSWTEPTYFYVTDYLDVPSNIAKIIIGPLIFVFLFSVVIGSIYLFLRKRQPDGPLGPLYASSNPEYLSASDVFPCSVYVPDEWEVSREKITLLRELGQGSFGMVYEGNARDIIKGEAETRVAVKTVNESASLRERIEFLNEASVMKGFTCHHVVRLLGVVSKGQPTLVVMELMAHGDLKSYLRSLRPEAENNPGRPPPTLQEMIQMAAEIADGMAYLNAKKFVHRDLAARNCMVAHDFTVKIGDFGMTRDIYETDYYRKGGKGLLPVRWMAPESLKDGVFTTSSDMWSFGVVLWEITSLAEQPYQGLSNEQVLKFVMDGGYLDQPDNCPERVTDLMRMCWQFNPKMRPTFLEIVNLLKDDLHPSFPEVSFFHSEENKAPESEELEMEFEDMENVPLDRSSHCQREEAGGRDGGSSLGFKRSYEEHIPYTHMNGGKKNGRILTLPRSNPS

`CCc1nc(C)cc(C)c1O.O=C(O)CCC(=O)O` [2-Ethyl-4,6-dimethyl-3-hydroxypyridine, succinic acid salt (1:1)]: the “Insulin receptor phosphorylation, %” value on insulin receptor (compound 50 μM alone) turned out to be 14 ± 4%; at insulin receptor (insulin 5 nM + compound 50 μM) it was 56 ± 7 %. Also, the Glucose worked out at 8.5 ± 1.3 mmol/L in experiment [1] (setting [2]) and 15.9 ± 2.1 mmol/L in experiment [1] (setting [3]). Further, the Insulin in experiment [1] (setting [2]) amounted to 2.9 ± 0.4 ng/mL; in experiment [1] (setting [3]) it was 11.2 ± 1.7 ng/mL. For the same compound, the Triglycerides in experiment [1] (setting [2]) turned out to be 1.8 ± 0.4 mmol/L; in experiment [1] (setting [3]), 2.9 ± 0.4 mmol/L.

Regarding `CCc1nc(C)c(C)c(C)c1O.O=C(O)CCC(=O)O` [2-Ethyl-4,5,6-trimethyl-3-hydroxypyridine, succinic acid salt (1:1)], the “Insulin receptor phosphorylation, %” value at insulin receptor (compound 50 μM alone) was 13 ± 2%; at insulin receptor (insulin 5 nM + compound 50 μM), 62 ± 8 %. Also, the Glucose in experiment [1] (setting [2]) turned out to be 7.3 ± 1.1 mmol/L; in experiment [1] (setting [3]), 16.0 ± 2.6 mmol/L. Moreover, the results for the Insulin in experiment [1] (setting [2]) and in experiment [1] (setting [3]) were 2.3 ± 0.5 ng/mL and 11.4 ± 2.0 ng/mL, respectively. The Triglycerides was determined as 1.6 ± 0.3 mmol/L in experiment [1] (setting [2]) and 3.1 ± 0.2 mmol/L in experiment [1] (setting [3]).
